The assay concerns the target T1, ERα (Homo sapiens, UniProt P03372).
T1 construct: host or cells: MCF7
T1 sequence (P03372 1-595): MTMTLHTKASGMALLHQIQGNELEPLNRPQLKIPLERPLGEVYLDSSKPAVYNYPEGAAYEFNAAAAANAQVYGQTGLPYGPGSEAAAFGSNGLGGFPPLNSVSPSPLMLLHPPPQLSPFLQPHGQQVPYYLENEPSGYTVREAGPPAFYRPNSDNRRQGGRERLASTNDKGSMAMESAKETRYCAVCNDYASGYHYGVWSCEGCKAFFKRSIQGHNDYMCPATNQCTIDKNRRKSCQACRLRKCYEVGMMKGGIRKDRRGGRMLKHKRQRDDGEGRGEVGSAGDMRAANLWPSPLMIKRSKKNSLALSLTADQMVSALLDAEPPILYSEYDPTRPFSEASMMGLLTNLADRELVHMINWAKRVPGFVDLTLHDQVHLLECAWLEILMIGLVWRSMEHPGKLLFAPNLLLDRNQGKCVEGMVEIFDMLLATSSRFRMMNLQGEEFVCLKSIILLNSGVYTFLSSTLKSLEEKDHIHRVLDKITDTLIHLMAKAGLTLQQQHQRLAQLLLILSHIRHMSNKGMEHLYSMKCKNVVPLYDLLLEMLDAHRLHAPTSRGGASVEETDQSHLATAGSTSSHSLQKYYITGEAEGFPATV
Briefly: Estrogen receptor degradation activity: breast cancer cell ERα in cell western assay. The settings on record: MCF7 cells; for % Degradation At 0.3 μM: 4 hours, relative to fulvestrant 0.1 μM positive control; for DC50: 4 hours post compound addition, concentration which degrades 50% of the estrogen receptor, read-out: Degradation IC50. Type of assay: cell-based. The method, then: Test: Estrogen Receptor Degradation Activity
Said test involves measuring the in vitro degradation activity of the compounds of the table 1.
The measurements of the degradation activities were made using a breast cancer cell ERα in cell western assay as described hereunder.
MCF7 cells (ATCC) were seeded in 384 wells microplate (collagen coated) at a concentration of 10000 cells/30 μL per well in red phenol free MEM alpha medium (invitrogen) containing 5% charcoal dextran striped FBS. The following day, 9 points serial 1:5 dilution of each compound was added to the cells in 2.5 μL at final concentrations ranging from 0.3-0.0000018 μM (in table 2), or 0.1 μM for fulvestrant (using as positive control). At 4 hours post compound addition the cells were fixed by adding 25 μL of formalin (final concentration 5% formalin containing 0.1% triton) for 10 minutes at RT and then washed twice with PBS. Then, 50 μL of LI-COR blocking buffer containing 0.1% Triton was added to plate for 30 minutes at RT. LI-COR blocking buffer was removed and cells were incubated overnight at cold room with 50 μL anti-ER rabbit monoclonal antibody (Thermo scientific MA1-39540) diluted at 1:1000 in LI-COR blocking buffer containing 0.1% tween-20. Wells which were treated with blocking buffer but no antibody were used as background control. Wells were washed twice with PBS (0.1% tween-20) and incubated at 37° C. for 60 minutes in LI-COR (0.1% tween-20) containing goat anti-rabbit antibody Alexa 488 (1:1000) and Syto-64 a DNA dye (2 μM final concentration). Cells were then washed 3 times in PBS and scanned in ACUMEN explorer (TTP-Labtech). Integrated intensities in the green fluorescence and red fluorescence were measured to determine the levels of ERα and DNA respectively.
The degradation activity with respect to estrogen receptors in this test is given by the concentration which degrades 50% of the estrogen receptor (or ICso) in nM.
The % of ERα levels decrease were determined as follows: % inhibition=100*(1−(sample−fulvestrant:DMSO−fulvestrant)).

Molecules are shown by their SMILES.

The text below walks through data of US20260055089A1, “NOVEL SUBSTITUTED BENZOTHIOPHENE-6-CARBOXYLIC ACID DERIVATIVES, PROCESSES FOR THEIR PREPARATION AND THERAPEUTIC USES THEREOF” (SANOFI, priority 2022, published 2026).

For the compound `CC(F)(F)c1cc(F)ccc1-c1sc2cc(C(=O)O)ccc2c1Oc1ccc(NC2CN(CCCF)C2)cc1.Cl` [Compound 1, 2-(2-(1,1-difluoroethyl)-4-fluorophenyl)-3-(4-((1-(3-fluoropropyl)azetidin-3-yl)amino)phenoxy)benzo[b]thiophene-6-carboxylic acid, hydrochloride], the “% Degradation At 0.3 μM” value is 92% and the DC50 turned out to be 2 nM.

`CC(F)(F)c1cc(F)ccc1-c1sc2cc(C(=O)O)ccc2c1Oc1ccc(OC2CN(CCCF)C2)cc1` [Compound 2, 2-(2-(1,1-difluoroethyl)-4-fluorophenyl)-3-(4-((1-(3-fluoropropyl)azetidin-3-yl)oxy)phenoxy)benzo[b]thiophene-6-carboxylic acid]: the “% Degradation At 0.3 μM” value was 93% and the DC50 came to 0.9 nM.

For the compound `CC(F)(F)c1cc(F)ccc1-c1sc2cc(C(=O)O)ccc2c1Oc1ccc(O[C@H]2CCN(CCCF)C2)cc1` [Compound 3, (S)-2-(2-(1,1-difluoroethyl)-4-fluorophenyl)-3-(4-((1-(3-fluoropropyl)pyrrolidin-3-yl)oxy)phenoxy)benzo[b]thiophene-6-carboxylic acid], the “% Degradation At 0.3 μM” value was 85% and the DC50 worked out at 5 nM.
